{"source": "patent US20210196652A1", "about": "“USE OF CYSTEAMINE AND DERIVATIVES THEREOF TO TREAT DYSFUNCTIONAL TEAR SYNDROME (DTS)” (MESHABERASE, LLC, priority 2019, published 2021)", "key": {"[1]": {"assay": "Self-treatment of dysfunctional tear syndrome patients with cysteamine ocular drops: symptom diary (3-point Likert scale), weekly interviews, patient reports", "format": "in vivo, human", "from_the_text": "(§1) Sterile ocular cysteamine drops with a concentration of 0.44% were used in a dosage schedule of one drop per eye, four times per day.\n(§2) Four patients were self-treated with cysteamine ocular drops as described above for 30-37 days. Patients were requested to fill out a diary sheet daily and to return weekly for follow-up. Three of the four patients filled out the diary that included a 3-point Likert scale of symptoms, number of times drops were used daily, and a space for other comments. […] Patients were tested for MMP using the INFLAMMADRY test (see Kaufman) and the Schirmer test (in which a filter paper strip is placed in the lower fornix of the eyelid to absorb tears), with and without anesthesia, using Oxford grading (observation of conjunctiva and cornea using BIO-GLO fluorescein strips) at entry, and Schirmer with and without anesthesia on the final visit.\nFour patients (Patients 1, 2, 3, and 4) were tested. […] Among the patients testing MMP-positive, there was an improvement in Likert-scale and other comments. […] Patients 1 and 3 returned for 4 weekly visits; Patient 2 returned for 5 weekly visits.\nPatient 4 was not tested for MMP, but presented with symptoms of DTS, including years of pain and poor response to other treatments. On the theory the MMP is involved or a causative factor in recurrent epithelial erosion and dry eye, they were treated using the same regimen noted above for Patients 1, 2, and 3. Following treatment, Patient 4 reports being “cured,” and is apparently free of significant symptoms."}, "[2]": {"settings": "administered for conditions such as cystinosis; available cysteamine products; cited from earlier work"}, "[3]": {"assay": "Schirmer test (filter paper strip in lower fornix) in treated DTS patients", "format": "in vivo, human", "settings": "MMP-positive patients (Patients 1 and 3)", "from_the_text": "as §1, §2"}, "[4]": {"settings": "cited from earlier work"}, "[5]": {"tested_on": "intracellular cystine levels in circulating leukocytes", "settings": "cited from earlier work"}, "[6]": {"settings": "children with cystinosis, enteral administration"}}, "data": [{"smiles": "NCCS", "note": "[cysteamine, Cysteamine (HS—CH2—CH—2—NH2)]", "values": [{"measurement": "objective and subjective symptoms of Dry Eye Disease (DTS, dry eye, keratitis sicca)", "setting": "[1]; MMP positive patients, 0.44% drops, one drop per eye, four times per day", "result": "decreases"}, {"measurement": "Likert-scale (3-point scale of symptoms) and other diary comments", "setting": "[1]; MMP-positive patients (Patients 1 and 3), 0.44% drops four times per day, 30-37 days", "result": "improvement"}, {"measurement": "symptoms reported at interview during each weekly visit", "setting": "[1]; MMP-positive patients (Patients 1 and 3), FIGS. 1 and 2", "result": "changes in symptoms indicative of improvement"}, {"measurement": "need for artificial tears after starting treatment", "setting": "[1]; Patient 2, MMP-negative", "result": "able to go without artificial tears for a majority of the four weeks"}, {"measurement": "3-point Likert scale of symptoms", "setting": "[1]; Patient 2, MMP-negative, no objective findings of DTS", "result": "did not report changes"}, {"measurement": "patient-reported outcome following treatment", "setting": "[1]; Patient 4, not tested for MMP, recurrent epithelial erosion and dry eye, same regimen", "result": "cured"}, {"measurement": "ocular adverse effects", "setting": "[2]", "result": "slinging and stippling erosion of the cornea"}, {"measurement": "Schirmer tests at the end of the study", "setting": "[3]", "result": "improvement in Schirmer tests"}, {"measurement": "unpleasant side effects", "setting": "[4]; high systemic dosing levels and frequencies, CYSTAGON package insert", "result": "gastrointestinal distress and body odor"}, {"measurement": "metabolism and clearance from the body", "setting": "[4]; systemic administration", "result": "converted to taurine in a matter of hours"}, {"measurement": "intracellular cystine levels in circulating leukocytes", "setting": "[5]; Dohil et al. 2006", "result": "lowering of intracellular cystine levels"}, {"measurement": "lowering of leukocyte cystine levels", "setting": "[5]; [6]", "result": "prolonged efficacy"}, {"measurement": "plasma cysteamine levels", "setting": "[5]; [6]", "result": "increased plasma cysteamine levels"}]}]}
